The source of these data is patent publication US20220274961A1, “SUBSTITUTED FUSED BI- OR TRI- HETEROCYCLIC COMPOUNDS AS EHMT2 INHIBITORS” (priority 2016, published 2022).

The assay has as its target T1, EHMT1 (Homo sapiens, UniProt Q9H9B1).
T1 sequence (Q9H9B1 1-1298): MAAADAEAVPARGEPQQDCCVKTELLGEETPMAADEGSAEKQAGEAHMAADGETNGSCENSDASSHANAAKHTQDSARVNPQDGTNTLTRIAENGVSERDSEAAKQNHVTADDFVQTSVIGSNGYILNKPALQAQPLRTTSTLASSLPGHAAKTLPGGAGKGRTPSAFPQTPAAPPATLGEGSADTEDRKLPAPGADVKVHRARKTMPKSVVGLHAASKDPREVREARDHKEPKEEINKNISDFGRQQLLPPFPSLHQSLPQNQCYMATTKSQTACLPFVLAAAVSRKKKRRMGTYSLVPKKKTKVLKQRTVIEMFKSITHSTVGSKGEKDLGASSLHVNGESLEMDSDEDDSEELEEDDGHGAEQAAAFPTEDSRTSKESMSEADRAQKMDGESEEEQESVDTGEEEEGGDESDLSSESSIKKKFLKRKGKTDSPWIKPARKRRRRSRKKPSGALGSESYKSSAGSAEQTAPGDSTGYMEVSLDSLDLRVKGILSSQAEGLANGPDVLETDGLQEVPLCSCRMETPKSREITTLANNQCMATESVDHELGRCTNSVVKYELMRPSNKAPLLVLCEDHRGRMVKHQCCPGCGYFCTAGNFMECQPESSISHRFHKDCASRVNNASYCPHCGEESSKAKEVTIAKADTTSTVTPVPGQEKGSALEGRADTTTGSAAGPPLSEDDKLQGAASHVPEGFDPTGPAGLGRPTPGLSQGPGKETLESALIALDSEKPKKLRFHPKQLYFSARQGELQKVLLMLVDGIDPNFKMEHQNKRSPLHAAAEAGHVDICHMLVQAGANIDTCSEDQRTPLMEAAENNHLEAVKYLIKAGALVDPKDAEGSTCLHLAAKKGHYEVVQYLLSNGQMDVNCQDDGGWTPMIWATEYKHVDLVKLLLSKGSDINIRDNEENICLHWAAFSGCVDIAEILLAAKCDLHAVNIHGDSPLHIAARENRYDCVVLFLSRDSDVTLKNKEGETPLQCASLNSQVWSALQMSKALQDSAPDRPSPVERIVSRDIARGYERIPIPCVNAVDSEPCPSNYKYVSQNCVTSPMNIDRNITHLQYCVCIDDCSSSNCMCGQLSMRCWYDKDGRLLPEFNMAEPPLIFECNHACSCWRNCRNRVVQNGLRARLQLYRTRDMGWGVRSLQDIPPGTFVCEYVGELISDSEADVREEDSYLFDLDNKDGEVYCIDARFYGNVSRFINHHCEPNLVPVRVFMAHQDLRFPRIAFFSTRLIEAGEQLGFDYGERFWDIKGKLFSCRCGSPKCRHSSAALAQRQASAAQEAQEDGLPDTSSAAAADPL
Description: EHMT1 PEP. It counts as biochemical.

For the compound `COc1cc2c(cc1OC[C@H](O)CN1CCCC1)nc(NC1CCCC1)n2C` [Compound 33], the 50% inhibitory concentration (IC50) was 0.1 to 1 µM.
With `COc1cc2c(cc1OCCCN1CCCC1)N=C(N)C21CCOC1` (stereo not drawn) [Compound 7, 5′-methoxy-6′-(3-(pyrrolidin-1-yl)propoxy)-4,5-dihydro-2H-spiro[furan-3,3′-indol]-2′-amine] the figure was less than 0.1 µM; with `COc1cc2c(cc1OCCCN1CCCC1)nc(N)n2C1CCCC1` [Compound 3, 1-cyclopentyl-6-methoxy-5-(3-(pyrrolidin-1-yl)propoxy)-1H-benzo[d]imidazol-2-amine], less than 0.1 µM; with `COc1cc2c(cc1OCCCN1CCCC1)nc(C1CCCC1)n2C` [Compound 22, 2-cyclopentyl-6-methoxy-1-methyl-5-(3-(pyrrolidin-1-yl)propoxy)-1H-benzo[d]imidazole], 1 to 10 µM.
With `CNC1=Nc2cc(CNCCN3CCCC3)c(OC)cc2C12CCC2` [Compound 70] the figure was less than 0.1 µM; with `CNc1nc2cc(OC[C@H](O)CN3CCCC3)c(OC)cc2n1C` [Compound 26], less than 0.1 µM; with `CCn1c(NC)nc2cc(CNCCN3CCCC3)c(OC)cc21` [Compound 41], less than 0.1 µM.
Compound `COc1cc2c(cc1OCCCN1CCCC1)nc(NCC(F)(F)F)n2C` [Compound 12, 6-methoxy-1-methyl-5-(3-(pyrrolidin-1-yl)propoxy)-N-(2,2,2-trifluoroethyl)-1H-benzo[d]imidazol-2-amine] displayed a concentration for half-maximal inhibition (IC50) of 1 to 10 µM.
With `COc1cc2c(cc1OCCCN1CCCC1)nc(NC(C)C)n2C` [Compound 28] the figure was 0.1 to 1 µM.
With `CNc1nc2cc(OCCCN3CCCC3)c(OC)cc2n1C(C)C` [Compound 36] the figure was less than 0.1 µM; with `COc1cc2c(cc1CNCCN1CCCC1)N=C(NC1CCOCC1)C21CCC1` [Compound 76], 1 to 10 µM; with `COc1cc2c(cc1OCCCN1CCCC1)nc(C)n2C1CCCC1` [Compound 23, 1-cyclopentyl-6-methoxy-2-methyl-5-(3-(pyrrolidin-1-yl)propoxy)-1H-benzo[d]imidazole], 1 to 10 µM.
With `CNC1=Nc2cc(C#C[C@H](C)N3CCCC3)c(OC)cc2C12CCC2` [Compound 85] the figure was less than 0.1 µM; with `CNC1=Nc2cc(C#CC(C)N3CCCCC3)c(OC)cc2C12CCC2` (stereo not drawn) [Compound 92], less than 0.1 µM; with `COc1cc2sc(N)nc2cc1OCCCN1CCCC1` [Compound 6, 6-methoxy-5-[3-(pyrrolidin-1-yl)propoxy]-1,3-benzothiazol-2-amine], 1 to 10 µM.
Compound `CNc1nc2cc(OCCCN3CCCC3)c(OC)cc2n1C` [Compound 8, 6-methoxy-N,1-dimethyl-5-(3-(pyrrolidin-1-yl)propoxy)-1H-benzo[d]imidazol-2-amine] showed a 50% inhibitory concentration (IC50) of less than 0.1 µM.
With `COc1cc2c(cc1OCCCN1CCCC1)nc(N)n2CC1CCOCC1` [Compound 18] the figure was 0.1 to 1 µM; with `CNC1=Nc2cc(C#CCN3CCCCC3)c(OC)cc2C12CCC2` [Compound 75, 5′-methoxy-N-methyl-6′-(3-(piperidin-1-yl)prop-1-yn-1-yl)spiro[cyclobutane-1,3′-indol]-2′-amine], less than 0.1 µM.
With `CCNC1=Nc2cc(CNCCN3CCC3)c(OC)cc2C12CCC2` [Compound 72] the figure was less than 0.1 µM; with `CCN1CC(COc2cc3nc(N)n(C4CCCC4)c3cc2OC)C1` [Compound 10, 1-cyclopentyl-5-((1-ethylazetidin-3-yl)methoxy)-6-methoxy-1H-benzo[d]imidazol-2-amine], less than 0.1 µM; with `CNc1nc2cc(OC[C@H](O)CN3CCCC3)c(OC)cc2n1C1CCCC1` [Compound 38], less than 0.1 µM.
With `COc1cc2c(cc1C#CCN1CCCC1)N=C(N)C21CCC1` [Compound 24, 5′-methoxy-6′-(3-(pyrrolidin-1-yl)prop-1-yn-1-yl)spiro[cyclobutane-1,3′-indol]-2′-amine] the figure was less than 0.1 µM; with `COc1cc2c(cc1OCCCN1CCCC1)nc(NC1CCOCC1)n2C` [Compound 29], 1 to 10 µM.
Turning to `CNC1=Nc2cc(C#CCN3CCCC3)c(OC)cc2C12CCC2` [Compound 74], the half-inhibitory concentration (IC50) was less than 0.1 µM.
With `CNc1nc2cc(CNCCN3CCCC3)c(Cl)cc2n1C(C)C` [Compound 138] the figure was 0.1 to 1 µM; with `COc1cc2c(cc1OCCCN1CCCC1)nc(N)n2CC(F)(F)F` [Compound 11, 6-methoxy-5-(3-(pyrrolidin-1-yl)propoxy)-1-(2,2,2-trifluoroethyl)-1H-benzo[d]imidazole-2-amine], 0.1 to 1 µM.
With `CCNc1nc2cc(OCCCN3CCCC3)c(OC)cc2n1CC` [Compound 39] the figure was less than 0.1 µM; with `COc1cc2c(cc1OCCCN1CCCC1)nc(N)n2C(C)C` [Compound 19], less than 0.1 µM; with `CNc1nc2cc(CNCCN3CCCC3)c(OC)cc2n1C` [Compound 37], less than 0.1 µM.
With `CNc1nc2cc(OCCCN3CCCC3)c(OC)cc2n1C1CCOCC1` [Compound 13, 6-methoxy-N-methyl-5-(3-(pyrrolidin-1-yl)propoxy)-1-(tetrahydro-2H-pyran-4-yl)-1H-benzo[d]imidazol-2-amine] the figure was less than 0.1 µM; with `COc1cc2c(cc1OC[C@H](O)CN1CCCC1)nc(NCC1CC1)n2C` [Compound 34], less than 0.1 µM.
As to `COc1cc2c(cc1OCCCN1CCCC1)nc(N)n2C` [Compound 2, 6-methoxy-1-methyl-5-(3-(pyrrolidin-1-yl)propoxy)-1H-benzo[d]imidazol-2-amine], the IC50 was less than 0.1 µM.
With `CCCNC1=Nc2cc(CNCCN3CCCC3)c(OC)cc2C12CCC2` [Compound 73] the figure was less than 0.1 µM; with `COc1cc2c(cc1OC[C@H](O)CN1CCCC1)nc(NC(C)C)n2C` [Compound 32], 0.1 to 1 µM; with `COc1cc2[nH]c(N)nc2cc1OCCCN1CCCC1` [Compound 1, 6-methoxy-5-(3-(pyrrolidin-1-yl)propoxy)-1H-benzo[d]imidazol-2-amine], less than 0.1 µM.
With `COc1cc2c(cc1OCCCN1CCCC1)nc(C)n2C` [Compound 21, 6-methoxy-1,2-dimethyl-5-(3-(pyrrolidin-1-yl)propoxy)-1H-benzo[d]imidazole] the figure was 1 to 10 µM.
With `CCn1c(NC)nc2cc(OCCCN3CCCC3)c(OC)cc21` [Compound 42] the figure was less than 0.1 µM.
As for `COCCNC1=Nc2cc(C#CCN3CCCCC3)c(OC)cc2C12CCC2` [Compound 99], the 50% inhibitory concentration (IC50) was less than 0.1 µM.
`CNC1=Nc2cc(C#CC(C)N3CCCC3)c(OC)cc2C12CCC2` (stereo not drawn) [Compound 84] displayed a 50% inhibitory concentration (IC50) of less than 0.1 µM.
As for `CCN1CC[C@@H](COc2cc3nc(N)n(C4CCCC4)c3cc2OC)C1` [Compound 9, 1-cyclopentyl-5-[[(3R)-1-ethylpyrrolidin-3-yl]methoxy]-6-methoxy-1H-1,3-benzodiazol-2-amine], the half-maximal inhibitory concentration (IC50) is less than 0.1 µM.
With `COc1cc2c(cc1OC[C@H](O)CN1CCCC1)nc(NC1CCOCC1)n2C` [Compound 35] the figure was 1 to 10 µM; with `CNC1=Nc2cc(C#C[C@@H](C)N3CCCC3)c(OC)cc2C12CCC2` [Compound 86], 0.1 to 1 µM.
The compound `CNc1nc2cc(CNCCN3CCCC3)c(C)cc2n1C(C)C` [Compound 139] returned an IC50 of 0.1 to 1 µM.
`CNC1=Nc2cc(C#CCN3CCC(F)C3)c(OC)cc2C12CCC2` (stereo not drawn) [Compound 100]: the IC50 fell in the range of 0.1 to 1 µM.
`CCNC1=Nc2cc(CNCCN3CCCC3)c(OC)cc2C12CCC2` [Compound 71] came in with an IC50 of less than 0.1 µM.
With `CNc1nc2cc(CNCCN3CCCC3)c(OC)cc2n1C(C)C` [Compound 40] the figure was less than 0.1 µM; with `CNc1nc2cc(OC[C@H](O)CN3CCC3)c(OC)cc2n1C` [Compound 25], less than 0.1 µM; with `CCNc1nc2cc(OC[C@H](O)CN3CCCC3)c(OC)cc2n1C` [Compound 31], less than 0.1 µM.
With `COc1cc2c(cc1OCCCN1CCCC1)nc(NC1CCCC1)n2C` [Compound 30] the figure was 0.1 to 1 µM.
With `CCNc1nc2cc(OCCCN3CCCC3)c(OC)cc2n1C` [Compound 27] the figure was less than 0.1 µM; with `COc1cc2c(cc1OCCCN1CCCC1)N=C(N)C21CCOCC1` [Compound 5, 5-methoxy-6-(3-(pyrrolidin-1-yl)propoxy)-2′,3′,5′,6′-tetrahydrospiro[indole-3,4′-pyran]-2-amine], less than 0.1 µM.
